Results from the supplement of paper PMC13380429.

Legend:
Conditions in all cases: 72 h
Calu-3 [1] = assay: cell viability relative to DMSO; higher = less toxic
HepG2 [2] = assay: as above
U2OS [3] = assay: as above
Vero E6 [4] = assay: as above
Calu-3 [5] = assay: relative viability EC50 (midpoint between 100% and the lowest measured viability); higher = less toxic
HepG2 [6] = assay: as above
U2OS [7] = assay: as above
Vero E6 [8] = assay: as above
Calu-3 [9] = assay: drug sensitivity score (DSS) for viability; higher = more toxic; extreme values may be limits of the assay
HepG2 [10] = assay: as above
U2OS [11] = assay: as above
Vero E6 [12] = assay: as above
Caco-2 [13] = assay: cell viability relative to DMSO; higher = less toxic
Caco-2 [14] = assay: relative viability EC50 (midpoint between 100% and the lowest measured viability); higher = less toxic
Caco-2 [15] = assay: drug sensitivity score (DSS) for viability; higher = more toxic; extreme values may be limits of the assay

SMILES	cell viability (Calu-3 [1]; 1 nM) [%]	cell viability (Calu-3 [1]; 10 nM) [%]	cell viability (Calu-3 [1]; 100 nM) [%]	cell viability (Calu-3 [1]; 1000 nM) [%]	cell viability (Calu-3 [1]; 10000 nM) [%]	cell viability (HepG2 [2]; 1 nM) [%]	cell viability (HepG2 [2]; 10 nM) [%]	cell viability (HepG2 [2]; 100 nM) [%]	cell viability (HepG2 [2]; 1000 nM) [%]	cell viability (HepG2 [2]; 10000 nM) [%]	cell viability (U2OS [3]; 1 nM) [%]	cell viability (U2OS [3]; 10 nM) [%]	cell viability (U2OS [3]; 100 nM) [%]	cell viability (U2OS [3]; 1000 nM) [%]	cell viability (U2OS [3]; 10000 nM) [%]	cell viability (Vero E6 [4]; 1 nM) [%]	cell viability (Vero E6 [4]; 10 nM) [%]	cell viability (Vero E6 [4]; 100 nM) [%]	cell viability (Vero E6 [4]; 1000 nM) [%]	cell viability (Vero E6 [4]; 10000 nM) [%]	relative viability EC50 (Calu-3 [5]) [µM]	relative viability EC50 (HepG2 [6]) [µM]	relative viability EC50 (U2OS [7]) [µM]	relative viability EC50 (Vero E6 [8]) [µM]	drug sensitivity score (Calu-3 [9])	drug sensitivity score (HepG2 [10])	drug sensitivity score (U2OS [11])	drug sensitivity score (Vero E6 [12])	cell viability (Caco-2 [13]; 1 nM) [%]	cell viability (Caco-2 [13]; 10 nM) [%]	cell viability (Caco-2 [13]; 100 nM) [%]	cell viability (Caco-2 [13]; 1000 nM) [%]	cell viability (Caco-2 [13]; 10000 nM) [%]	relative viability EC50 (Caco-2 [14]) [µM]	drug sensitivity score (Caco-2 [15])
N=C(N)NCCC[C@@H](NC(=O)[C@@H]1CCCN1C(=O)[C@@H]1CSSCCC(=O)N[C@@H](Cc2ccc(O)cc2)C(=O)N[C@@H](Cc2ccccc2)C(=O)N[C@@H](CCC(N)=O)C(=O)N[C@@H](CC(N)=O)C(=O)N1)C(=O)NCC(N)=O [desmopressin-acetate]	101	92.7	110	93.4	102	106	96.2	110	107	106	97.5	93.8	96.6	96.3	100	105	108	106	101	99.4	> 10	> 10	> 10	> 10	0	0	0	0	–	–	–	–	–	–	–
CC(C)=CCC[C@](C)(O)[C@H]1CC[C@]2(C)[C@@H]1[C@H](O)C[C@@H]1[C@@]3(C)CC[C@H](O)C(C)(C)[C@@H]3[C@@H](O)C[C@]12C [hemomex-s]	105	109	112	105	93.4	–	–	–	–	–	97.4	101	99.8	101	100	96.1	93.9	96.6	98.8	99.2	> 10	–	> 10	> 10	0	–	0	0	113	106	103	111	96.9	> 10	0
COc1ccc(CCN)cc1OC [homoveratrylamine]	100	85.6	113	98.2	95.7	110	103	98.2	108	115	94.6	96.1	97.6	97.3	101	108	106	94.9	97.5	96.4	> 10	> 10	> 10	> 10	0	0	0	0	89.4	77.6	110	79.4	73	–	2.9
O=c1[nH]c(=O)n([C@H]2C[C@H](O)[C@@H](CO)O2)cc1I [idoxuridine]	106	96.6	110	93	96.5	101	104	95.8	94	62.5	98.4	103	101	106	99.6	99.1	104	97.8	99.8	84.5	> 10	–	> 10	> 10	0	2.8	0	0.3	101	101	94	105	95.9	> 10	0
CNC(C)(C)Cc1ccccc1 [mephentermine]	101	97.4	95.5	102	99.8	102	99.6	106	104	91.4	–	–	–	–	–	108	97.3	97	105	104	> 10	> 10	–	> 10	0	0	–	0	97.1	105	104	106	96.8	> 10	0
Clc1ccc(COC(Cn2ccnc2)c2ccc(Cl)cc2Cl)c(Cl)c1 (stereo unspecified) [miconazole]	101	98.8	102	91.6	87.1	97.6	109	103	96.2	75.5	95.5	94.9	102	94.2	92.4	106	106	101	102	97.2	> 10	> 10	> 10	> 10	0.5	1.5	0	0	96.3	98	96.2	85.9	72.1	–	2.4
